Biological target: T1, CFTR (Homo sapiens, UniProt P13569)
T1 construct: endogenous in cells; host or cells: T84 human colonic cells (ECACC)
Assay: T84 assay (FLIPR membrane potential dye, forskolin/IBMX-stimulated CFTR channel activity)
Type: cell-based
Details: oxadiazole-containing compounds (a series), average of at least 2 runs unless annotated n = 1, read-out: IC50
Outline: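 Fluorescence from a membrane potential dye in T84 monolayers (HBSS with 10 mM Hepes) is followed each second for 150 s. Cells are exposed to test compound during the 45 min dye loading, then challenged with forskolin (10 μM) and IBMX (100 μM) to open CFTR. Inhibitors suppress the depolarization-driven fluorescence increase.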

T1 sequence (P13569 whole entry): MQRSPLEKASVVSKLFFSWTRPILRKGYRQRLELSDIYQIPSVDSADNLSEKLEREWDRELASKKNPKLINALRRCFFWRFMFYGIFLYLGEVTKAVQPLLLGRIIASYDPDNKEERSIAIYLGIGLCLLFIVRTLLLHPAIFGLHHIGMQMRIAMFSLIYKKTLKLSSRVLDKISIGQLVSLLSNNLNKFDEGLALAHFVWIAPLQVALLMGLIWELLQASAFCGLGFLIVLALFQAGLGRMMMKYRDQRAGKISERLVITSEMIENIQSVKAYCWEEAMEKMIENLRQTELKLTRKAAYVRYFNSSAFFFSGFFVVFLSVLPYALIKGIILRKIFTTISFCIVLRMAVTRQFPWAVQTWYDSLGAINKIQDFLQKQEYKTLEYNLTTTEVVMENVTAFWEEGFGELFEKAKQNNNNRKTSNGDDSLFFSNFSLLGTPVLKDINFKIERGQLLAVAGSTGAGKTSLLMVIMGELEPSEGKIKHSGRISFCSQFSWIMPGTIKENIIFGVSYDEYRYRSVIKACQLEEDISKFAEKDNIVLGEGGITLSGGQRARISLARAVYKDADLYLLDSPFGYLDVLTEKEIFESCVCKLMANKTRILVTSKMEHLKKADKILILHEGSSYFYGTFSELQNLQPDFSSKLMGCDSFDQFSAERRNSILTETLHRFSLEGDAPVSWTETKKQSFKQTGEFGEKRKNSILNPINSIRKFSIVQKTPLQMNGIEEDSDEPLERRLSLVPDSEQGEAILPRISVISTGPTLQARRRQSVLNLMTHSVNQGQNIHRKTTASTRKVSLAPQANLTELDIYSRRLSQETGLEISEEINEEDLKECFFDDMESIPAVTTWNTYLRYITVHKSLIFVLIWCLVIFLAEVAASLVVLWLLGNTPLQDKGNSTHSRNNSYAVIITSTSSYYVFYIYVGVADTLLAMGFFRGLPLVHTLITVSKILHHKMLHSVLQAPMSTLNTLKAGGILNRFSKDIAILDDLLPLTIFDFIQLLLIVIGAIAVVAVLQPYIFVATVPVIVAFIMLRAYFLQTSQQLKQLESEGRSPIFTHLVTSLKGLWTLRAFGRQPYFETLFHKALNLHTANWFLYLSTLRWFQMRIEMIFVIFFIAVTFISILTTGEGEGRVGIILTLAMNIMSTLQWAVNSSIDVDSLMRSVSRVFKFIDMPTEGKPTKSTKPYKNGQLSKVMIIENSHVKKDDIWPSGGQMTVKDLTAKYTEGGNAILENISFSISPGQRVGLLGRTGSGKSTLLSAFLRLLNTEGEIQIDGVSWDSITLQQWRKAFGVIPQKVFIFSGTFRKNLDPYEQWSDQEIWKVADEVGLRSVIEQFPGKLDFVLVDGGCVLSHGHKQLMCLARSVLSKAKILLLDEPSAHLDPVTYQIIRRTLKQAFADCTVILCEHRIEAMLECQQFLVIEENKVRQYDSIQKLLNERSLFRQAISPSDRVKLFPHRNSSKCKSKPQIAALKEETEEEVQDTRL

Row | Compound | IC50 [µM]
1 | Cc1cncc(Oc2cccc(CN(C)C(=O)c3nc(-c4cc(Cl)c(O)c(Cl)c4)no3)c2)n1 [172a, 3-(3,5-dichloro-4-hydroxyphenyl)-N-methyl-N-(3-(6-methylpyrazin-2-yloxy)benzyl)-1,2,4-oxadiazole-5-carboxamide] | 4.41
2 | CN(Cc1ccc(Oc2ccccn2)cc1)C(=O)c1nc(-c2cc(Cl)c(O)c(Cl)c2)no1 [173a, 3-(3,5-dichloro-4-hydroxyphenyl)-N-methyl-N-(4-(pyridin-2-yloxy)benzyl)-1,2,4-oxadiazole-5-carboxamide] | 12.4
3 | CN(Cc1ccc(-c2ccc(C(F)(F)F)cn2)cc1)C(=O)c1nc(-c2cc(Cl)c(O)c(Cl)c2)no1 [174a, 3-(3,5-dichloro-4-hydroxyphenyl)-N-methyl-N-(4-(5-(trifluoromethyl)pyridin-2-yl)benzyl)-1,2,4-oxadiazole-5-carboxamide] | 8.07
4 | CN(Cc1cccc(-c2ccncc2)c1)C(=O)c1nc(-c2cc(Cl)c(O)c(Cl)c2)no1 [175a, 3-(3,5-dichloro-4-hydroxyphenyl)-N-methyl-N-(3-(pyridin-4-yl)benzyl)-1,2,4-oxadiazole-5-carboxamide] | 6.78
5 | CN(Cc1cccc(-c2ncccn2)c1)C(=O)c1nc(-c2cc(Cl)c(O)c(Cl)c2)no1 [176a, 3-(3,5-dichloro-4-hydroxyphenyl)-N-methyl-N-(3-(pyrimidin-2-yl)benzyl)-1,2,4-oxadiazole-5-carboxamide] | 24.6
6 | CN(Cc1cccc(-c2cncnc2)c1)C(=O)c1nc(-c2cc(Cl)c(O)c(Cl)c2)no1 [177a, 3-(3,5-dichloro-4-hydroxyphenyl)-N-methyl-N-(3-(pyrimidin-5-yl)benzyl)-1,2,4-oxadiazole-5-carboxamide] | 16.3
7 | CN(Cc1cccc(Oc2ccccn2)c1)C(=O)c1nc(-c2cc(Cl)c(O)c(Cl)c2)no1 [178a, 3-(3,5-dichloro-4-hydroxyphenyl)-N-methyl-N-(3-(pyridin-2-yloxy)benzyl)-1,2,4-oxadiazole-5-carboxamide] | 7.94
8 | O=C(NCc1ccc(Oc2cccc(Cl)c2)cc1)c1nc(-c2cc(Cl)c(O)c(Cl)c2)no1 [179a, N-(4-(3-chlorophenoxy)benzyl)-3-(3,5-dichloro-4-hydroxyphenyl)-1,2,4-oxadiazole-5-carboxamide] | 10.7
9 | CC(C)Oc1ccc(Oc2ccc(CNC(=O)c3nc(-c4cc(Cl)c(O)c(Cl)c4)no3)cc2)cc1Cl [180a, N-(4-(3-chloro-4-isopropoxyphenoxy)benzyl)-3-(3,5-dichloro-4-hydroxyphenyl)-1,2,4-oxadiazole-5-carboxamide] | 10.3
10 | O=C(NCc1ccc(Oc2ccc(OC(F)(F)F)cc2)cc1)c1nc(-c2cc(Cl)c(O)c(Cl)c2)no1 [181a, 3-(3,5-dichloro-4-hydroxyphenyl)-N-(4-(4-(trifluoromethoxy)phenoxy)benzyl)-1,2,4-oxadiazole-5-carboxamide] | 18.7
11 | O=C(NCc1ccc(Oc2ccc(Br)cc2)cc1)c1nc(-c2cc(Cl)c(O)c(Cl)c2)no1 [182a, N-(4-(4-bromophenoxy)benzyl)-3-(3,5-dichloro-4-hydroxyphenyl)-1,2,4-oxadiazole-5-carboxamide] | 8.03
12 | COc1ccc(Oc2ccc(CNC(=O)c3nc(-c4cc(Cl)c(O)c(Cl)c4)no3)cc2)cc1F [183a, 3-(3,5-dichloro-4-hydroxyphenyl)-N-(4-(3-fluoro-4-methoxyphenoxy)benzyl)-1,2,4-oxadiazole-5-carboxamide] | 11.7
13 | CCOc1ccc(Oc2ccc(CNC(=O)c3nc(-c4cc(Cl)c(O)c(Cl)c4)no3)cc2)cc1Cl [184a, N-(4-(3-chloro-4-ethoxyphenoxy)benzyl)-3-(3,5-dichloro-4-hydroxyphenyl)-1,2,4-oxadiazole-5-carboxamide] | 13.6
14 | CN(Cc1cccc(-c2cccnc2)c1)C(=O)c1nc(-c2cc(Cl)c(O)c(Cl)c2)no1 [185a, 3-(3,5-dichloro-4-hydroxyphenyl)-N-methyl-N-(3-(pyridin-3-yl)benzyl)-1,2,4-oxadiazole-5-carboxamide] | 5.11
15 | CN(Cc1ccc(-c2ccccn2)cc1)C(=O)c1nc(-c2cc(Cl)c(O)c(Cl)c2)no1 [186a, 3-(3,5-dichloro-4-hydroxyphenyl)-N-methyl-N-(4-(pyridin-2-yl)benzyl)-1,2,4-oxadiazole-5-carboxamide] | 5.66
16 | CN(Cc1ccc(N2CCOCC2)cc1)C(=O)c1nc(-c2cc(Cl)c(O)c(Cl)c2)no1 [187a, 3-(3,5-dichloro-4-hydroxyphenyl)-N-methyl-N-(4-morpholinobenzyl)-1,2,4-oxadiazole-5-carboxamide] | 24.4
17 | CN(Cc1ccc(-c2cncnc2)cc1)C(=O)c1nc(-c2cc(Cl)c(O)c(Cl)c2)no1 [188a, 3-(3,5-dichloro-4-hydroxyphenyl)-N-methyl-N-(4-(pyrimidin-5-yl)benzyl)-1,2,4-oxadiazole-5-carboxamide] | 5.81

Row | Compound | IC50 [µM]
18 | CN(Cc1ccc(-c2ncccn2)cc1)C(=O)c1nc(-c2cc(Cl)c(O)c(Cl)c2)no1 [189a, 3-(3,5-dichloro-4-hydroxyphenyl)-N-methyl-N-(4-(pyrimidin-2-yl)benzyl)-1,2,4-oxadiazole-5-carboxamide] | 16.9
19 | O=C(NCc1ccc(Oc2cccc(OC(F)(F)F)c2)cc1)c1nc(-c2cc(Cl)c(O)c(Cl)c2)no1 [190a, 3-(3,5-dichloro-4-hydroxyphenyl)-N-(4-(3-(trifluoromethoxy)phenoxy)benzyl)-1,2,4-oxadiazole-5-carboxamide] | 11
20 | COc1cc(Oc2ccc(CNC(=O)c3nc(-c4cc(Cl)c(O)c(Cl)c4)no3)cc2)ccc1F [191a, 3-(3,5-dichloro-4-hydroxyphenyl)-N-(4-(4-fluoro-3-methoxyphenoxy)benzyl)-1,2,4-oxadiazole-5-carboxamide] | 8.85
21 | CC(C)(C)c1ccc(Oc2ccc(CNC(=O)c3nc(-c4cc(Cl)c(O)c(Cl)c4)no3)cc2)cc1 [192a, N-(4-(4-tert-butylphenoxy)benzyl)-3-(3,5-dichloro-4-hydroxyphenyl)-1,2,4-oxadiazole-5-carboxamide] | 17.6
22 | Cc1ccc(Oc2ccc(CNC(=O)c3nc(-c4cc(Cl)c(O)c(Cl)c4)no3)cc2)cc1Cl [193a, N-(4-(3-chloro-4-methylphenoxy)benzyl)-3-(3,5-dichloro-4-hydroxyphenyl)-1,2,4-oxadiazole-5-carboxamide] | 13.6
23 | O=C(NCc1ccc(Oc2cccc(F)c2)cc1)c1nc(-c2cc(Cl)c(O)c(Cl)c2)no1 [194a, 3-(3,5-dichloro-4-hydroxyphenyl)-N-(4-(3-fluorophenoxy)benzyl)-1,2,4-oxadiazole-5-carboxamide] | 10
24 | COc1ccc(Oc2ccc(CNC(=O)c3nc(-c4cc(Cl)c(O)c(Cl)c4)no3)cc2)cc1Cl [195a, N-(4-(3-chloro-4-methoxyphenoxy)benzyl)-3-(3,5-dichloro-4-hydroxyphenyl)-1,2,4-oxadiazole-5-carboxamide] | 8.92
25 | O=C(NCc1ccc(Oc2cc(Cl)cc(Cl)c2)cc1)c1nc(-c2cc(Cl)c(O)c(Cl)c2)no1 [196a, 3-(3,5-dichloro-4-hydroxyphenyl)-N-(4-(3,5-dichlorophenoxy)benzyl)-1,2,4-oxadiazole-5-carboxamide] | 16.2
26 | CN(C)c1ccc(Oc2ccc(CNC(=O)c3nc(-c4cc(Cl)c(O)c(Cl)c4)no3)cc2)cc1 [197a, 3-(3,5-dichloro-4-hydroxyphenyl)-N-(4-(4-(dimethylamino)phenoxy)benzyl)-1,2,4-oxadiazole-5-carboxamide] | 7.76
27 | O=C(NCc1ccc(Oc2ccc(C(F)(F)F)cc2)cc1)c1nc(-c2cc(Cl)c(O)c(Cl)c2)no1 [198a, 3-(3,5-dichloro-4-hydroxyphenyl)-N-(4-(4-(trifluoromethyl)phenoxy)benzyl)-1,2,4-oxadiazole-5-carboxamide] | 19.6
28 | CN(C)c1cccc(Oc2ccc(CNC(=O)c3nc(-c4cc(Cl)c(O)c(Cl)c4)no3)cc2)c1 [199a, 3-(3,5-dichloro-4-hydroxyphenyl)-N-(4-(3-(dimethylamino)phenoxy)benzyl)-1,2,4-oxadiazole-5-carboxamide] | 12.2
29 | O=C(NCc1ccc(Oc2ccc(F)c(C(F)(F)F)c2)cc1)c1nc(-c2cc(Cl)c(O)c(Cl)c2)no1 [200a, 3-(3,5-Dichloro-4-hydroxyphenyl)-N-(4-(4-fluoro-3-(trifluoromethyl)phenoxy)benzyl)-1,2,4-oxadiazole-5-carboxamide] | 13.2
30 | O=C(NCc1ccc(Oc2cc(F)cc(Br)c2)cc1)c1nc(-c2cc(Cl)c(O)c(Cl)c2)no1 [201a, N-(4-(3-bromo-5-fluorophenoxy)benzyl)-3-(3,5-dichloro-4-hydroxyphenyl)-1,2,4-oxadiazole-5-carboxamide] | 17.9
31 | O=C(NCc1ccc(Oc2ccc(Cl)c(C(F)(F)F)c2)cc1)c1nc(-c2cc(Cl)c(O)c(Cl)c2)no1 [202a, N-(4-(4-chloro-3-(trifluoromethyl)phenoxy)benzyl)-3-(3,5-dichloro-4-hydroxyphenyl)-1,2,4-oxadiazole-5-carboxamide] | 23.3
32 | O=C(c1nc(-c2cc(Br)c(O)c(Br)c2)no1)N1CCC(C(O)(c2ccccc2)c2ccccc2)CC1 [203a, (3-(3,5-dibromo-4-hydroxyphenyl)-1,2,4-oxadiazol-5-yl)(4-(hydroxydiphenylmethyl)piperidin-1-yl)methanone] | 25.9
33 | O=C(c1nc(-c2cc(Cl)c(O)c(Cl)c2)no1)N1CCC(Cc2ccccc2)CC1 [204a, (4-benzylpiperidin-1-yl)(3-(3,5-dichloro-4-hydroxyphenyl)-1,2,4-oxadiazol-5-yl)methanone] | 8.99
34 | CC(C)(C)ONC(=O)COc1c(Br)cc(-c2noc(C(=O)N3CCC(Cc4ccccc4)CC3)n2)cc1Br [205a, 2-(4-(5-(4-benzylpiperidine-1-carbonyl)-1,2,4-oxadiazol-3-yl)-2,6-dibromophenoxy)-N-tert-butoxyacetamide] | 23.1

From patent publication US20100144733A1, “Compounds, compositions and methods comprising heteroaromatic derivatives” (Institute for OneWorld Health, priority 2008, published 2010)
